Publication PMC4554599 (Bipolar disorders, 2014)

Columns and labels:
[1] = molecular target: T1, acyl-CoA synthetase-4 (Acsl4) (Rattus norvegicus, UniProt O35547); assay type: biochemical
[2] = molecular target: T1, acyl-CoA synthetase-4 (Acsl4); assay: Michaelis-Menten kinetics, […]AA to AA-CoA conversion; assay type: biochemical

T1 sequence (O35547 whole entry): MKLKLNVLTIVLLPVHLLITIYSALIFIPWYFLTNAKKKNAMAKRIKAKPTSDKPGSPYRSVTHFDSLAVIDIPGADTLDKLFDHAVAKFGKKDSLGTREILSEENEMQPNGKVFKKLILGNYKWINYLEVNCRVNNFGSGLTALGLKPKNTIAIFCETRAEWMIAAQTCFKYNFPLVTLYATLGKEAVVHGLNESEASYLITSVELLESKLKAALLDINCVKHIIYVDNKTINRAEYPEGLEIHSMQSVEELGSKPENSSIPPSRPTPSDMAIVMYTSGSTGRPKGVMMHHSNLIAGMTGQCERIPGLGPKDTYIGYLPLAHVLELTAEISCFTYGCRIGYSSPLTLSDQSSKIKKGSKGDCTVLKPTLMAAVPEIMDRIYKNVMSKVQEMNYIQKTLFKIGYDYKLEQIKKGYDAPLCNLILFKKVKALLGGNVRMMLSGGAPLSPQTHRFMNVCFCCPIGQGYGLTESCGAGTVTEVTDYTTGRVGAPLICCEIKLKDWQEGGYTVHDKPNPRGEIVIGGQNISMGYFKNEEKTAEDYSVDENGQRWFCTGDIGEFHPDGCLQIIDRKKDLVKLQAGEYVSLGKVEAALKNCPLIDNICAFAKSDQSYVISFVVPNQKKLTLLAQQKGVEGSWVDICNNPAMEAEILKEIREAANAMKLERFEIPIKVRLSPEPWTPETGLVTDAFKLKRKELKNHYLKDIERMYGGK

Structure (SMILES)	Ki [1] [mM]	Km [2] [µM]
CCC(C)C(CC)C(N)=O (racemic) [VCD, 2-ethyl-3-methyl pentanamide]	6.38 ± 0.63	
CCCCC/C=C\C/C=C\C/C=C\C/C=C\CCCC(=O)O [AA, arachidonic acid]		4.63 ± 0.67
